Among the data in PubChem BioAssay AID179 (DTP/NCI, 2004) are EC50, IC50 and outcome values, retold here.

Where “and” joins values, the source holds several entries; their conditions need not be identical. Equal entries are not always repeated. Calls of active or inactive are those of the source.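 How the source made its calls: active means compounds giving half or more protection of infected cells from virus-caused growth loss, again on retest; inactive means the rest.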 *1 amine or outer side, *2 acyl side, *3 side chain or, on linkers, in order; H or OH if unused. Where a SMILES comes first, the peptide text is derived from it. [ ]: non-standard residue; d: D form. The star is where a group is joined. X3 = CC(=O)N(C)SCC(N[*:1])C(=O)[*:2]; Fmoc = O=C(OCC1c2ccccc2-c2ccccc21)*; For = O=C*

Usually EC50 stands for the concentration needed to bring the measured effect to its halfway point. In general, IC50 refers to the concentration at which inhibition is half-maximal. Read a high IC50 as lower potency.

This assay relates to CEM cells HIV-1 protection, formazan growth assay. As to the kind of experiment: NCI AIDS Antiviral Assay. As to conditions: for IC50: measured here: growth of uninfected CEM cells. In outline: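 Five concentrations of each compound were applied to infected and uninfected human CEM cells. Protection from HIV-1 was judged from growth measured with a soluble formazan assay.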

Turning to `CCNc1ncc2nc(CC(=O)OC)c(=O)n(CC)c2n1`, the EC50 is above 200 µM and the 50% inhibitory concentration (IC50) was above 200 µM.
In the case of `COc1ccc(OC)c2c1C=CC(Br)=CC2`, the EC50 was above 200 µM and the IC50 turned out to be 53.7 µM.
For `Cc1c(C)c(C)c(-n2[nH]c(=O)n(C)c2=O)c(C)c1C`, the EC50 was above 200 µM and the half-inhibitory concentration (IC50) was above 200 µM.
As to `COC(=O)c1ccccc1CC(Cc1ccccc1)C(=O)OC` (stereo not drawn), the outcome was inactive.
As for `CCOC(=O)c1[nH]n(-c2ccccc2)c(=O)c1/C=N/C(=S)Nc1ccccc1`, the EC50 is above 200 µM and the IC50 is 51.3 µM.
For the compound `Cc1cccc2c1C(=O)[C@@](C)([C@]1(C)Nc3cccc(C)c3C1=O)N2`, the EC50 was above 200 µM and the concentration for half-maximal inhibition (IC50) was above 200 µM.
Consider `COC([C@@H](OC(=O)c1ccccc1)[C@H](OC(=O)c1ccccc1)C(O)COC(=O)c1ccccc1)n1cc(C)c(=O)[nH]c1=O` (stereo partly drawn), for which the EC50 is above 200 µM and the IC50 was determined as 13.2 µM.
Regarding `CCOC1(OCC)CC2C(=O)CCCC21OC(C)=O` (stereo not drawn), the EC50 is above 229 µM and the IC50 was determined as 132 µM.
As to `CCCCOC(=S)SSC(=S)OCCCC`, the EC50 was above 56.2 µM and the half-maximal inhibitory concentration (IC50) worked out at 11.5 µM.
The matching figures for `CCCCOC(=O)C1CC2OC2CC1C(=O)OCCCCOC(=O)C1CC2OC2CC1C(=O)OCCCC` (stereo not drawn): above 200 µM and 21.9 µM.
On to `Nc1ccn([C@H]2CO[C@@H](CO)[C@@H]2O)c(=O)n1`, for which the EC50 is above 200 µM and the half-maximal inhibitory concentration (IC50) is above 200 µM.
For the compound `O=S1(=O)OCCOS(=O)(=O)C1I`, the EC50 was above 759 µM and the 50% inhibitory concentration (IC50) stood at 132 µM.
As for `CC#CCCC1(C)CCCCN(C(=O)OC(C)C)C1OCC` (stereo not drawn), the EC50 is above 43.7 µM and the half-inhibitory concentration (IC50) is above 43.7 µM.
For `Cc1ncc(N)c(C(=O)O)n1`, the EC50 is above 1620 µM and the IC50 was above 1620 µM.
In the case of `CN(C)C=NCC(O)c1ccccc1` (stereo not drawn), the EC50 was above 200 µM and the IC50 was above 200 µM.
For `Clc1cccc(N2CCN(CCN3CCc4c([nH]c5ccccc45)C3c3cccnc3)CC2)c1` (stereo not drawn), the EC50 is above 2.19 µM and the IC50 is above 2.19 µM.
As for `O=C1c2ccccc2C(=O)C12CCc1ccccc12`, the result was inactive.
`CC(C)(C)C1CCC(=O)/C(=C/CC2CC(=O)N(c3ccccc3)C(=O)C2)C1` (stereo not drawn): the EC50 was above 200 µM and the IC50 was determined as 11.2 µM.
With `O=C1C[C@H]2[C@H](c3ccc(Br)cc3)[C@H]3C(=O)c4ccccc4NC(=O)[C@@H]3[C@@]2(O)c2ccccc2N1`, the EC50 was above 200 µM and the 50% inhibitory concentration (IC50) turned out to be 77.6 µM.
Consider `CCCCCCCCCCCCCCCCOP(=O)(O)OP(=O)(O)OCC1OC(n2ccc(N)nc2=O)C(O)C1O` (stereo not drawn), for which the EC50 was 174 µM and > 100 µM.
With `CCOC(=O)c1ccc(NC(=O)O/N=C(/Cl)C(C)C)cc1`, the EC50 was above 200 µM and the IC50 was 10.5 µM.
For `CCCCCC/C=C\CCCCCCCCCC1=CC(=O)C=C(OC)C1=O` the same measures were above 9.55 µM and above 9.55 µM.
With `O=C1c2ccccc2C2(c3ccc(Cl)cc3)N[C@H]3CCCC[C@@H]3N12` (stereo partly drawn), the EC50 is above 200 µM and the IC50 was 141 µM.
With `O=C(CCC(=O)c1ccsc1)c1ccsc1`, the EC50 is above 200 µM and the 50% inhibitory concentration (IC50) is above 200 µM.
On to `c1ccc2c(c1)nc(NC1CCCC1)c1[nH]c(C3CCCC3)nc12`, for which the EC50 was above 200 µM and the IC50 worked out at 25.1 µM.
Regarding `O=C(Nc1ccc2oc3ccc(Cl)cc3c(=O)c2c1)c1ccc(Cl)cc1Cl`, the EC50 is above 12.3 µM and the half-maximal inhibitory concentration (IC50) is above 12.3 µM.
On to `C/C(=N\NC(=O)N/N=C(\C)c1ccccn1)c1ccccn1`, for which the EC50 is above 2 µM and the 50% inhibitory concentration (IC50) was found to be 0.0339 µM.
Consider `N#CCCN(CCC#N)c1ccc(/C=C2\N=C(c3cc([N+](=O)[O-])ccc3Cl)N(S(=O)(=O)c3ccccc3)C2=O)cc1`, for which the EC50 is above 12.3 µM and the half-inhibitory concentration (IC50) was above 12.3 µM.
For the compound `O=NNc1ccc(Sc2ccc(NN=O)cn2)nc1`, the EC50 is above 100 µM and the IC50 is above 100 µM.
As for `COc1ccc(/C=C/C(C(=O)O)C(=O)O)cc1`, the EC50 was above 398 µM and the 50% inhibitory concentration (IC50) was 56.2 µM.
In the case of `CC(=O)N(C)SCC(NC(=O)C(Cc1ccccc1)NC(=O)OCC1c2ccccc2-c2ccccc21)C(=O)NC(Cc1ccccc1)C(=O)NC(Cc1cn(C=O)c2ccccc12)C(=O)NC(CCCCNC(=O)OCC1c2ccccc2-c2ccccc21)C(=O)NC(C(=O)NC(CSN(C)C(C)=O)C(=O)NC(C(N)=O)C(C)O)C(C)O` (stereo not drawn) (Fmoc-F[X3]FW(For)K(Fmoc)T[X3]T-NH2; configuration not given here), the EC50 was above 100 µM and the IC50 worked out at 79.4 µM.
As to `NC(=O)C1C2CC3C(NC(=O)C31)C2O` (stereo not drawn), the EC50 is above 200 µM and the IC50 was above 200 µM.
`COc1cc2c(cc1OC)C(CN)C2` (stereo not drawn): the EC50 was above 1070 µM; the half-inhibitory concentration (IC50) is 30.9 µM and 20 µM.
As to `O=C(O)C(=O)CC(=O)c1ccc(Br)cc1`, the EC50 was above 200 µM.
For `COc1ccc(/C=C2\CNC/C(=C\c3ccc(OC)cc3)C2=O)cc1`, the EC50 is above 7.41 µM and the IC50 is above 7.41 µM.
As to `CN(C)c1nc(N(C)C)sc(=O)n1`, the outcome was inactive.
With `C/C(CC(=O)NCCc1ccccc1)=N\NC(=O)C[n+]1ccccc1`, the EC50 is above 95.5 µM and the IC50 was above 95.5 µM.
For `CC(=O)N1CCC23c4ccccc4N(C)C2CC(=O)CC13` (stereo not drawn), the EC50 was above 871 µM and the IC50 is above 871 µM.
For `Cn1c(=O)c2c(n(C)c1=O)n1c(SCc3ccccc3)nnc1n2C`, the EC50 is above 200 µM and the IC50 was found to be 182 µM.
As to `C=CN1CCCC1=O`, the result was inactive.
For `O=C1CCC(N2C(=O)C3CC=CCC3C2=O)C(=O)N1` (stereo not drawn), the EC50 is above 200 µM and the IC50 was above 200 µM.
Take `CC1(C)C=CC2=C(O1)C(=O)c1ccccc1C2=O`: the EC50 is above 200 µM; the concentration for half-maximal inhibition (IC50) was 32.4 µM and 26.9 µM.
For the compound `N#CC1C(=O)SC2c3ccccc3C(=O)c3ccccc3C12` (stereo not drawn), the EC50 was above 200 µM and the IC50 was 132 µM.
With `O=C1CCC(=O)N1n1c(Cc2ccccc2)n[nH]c1=O`, the EC50 was above 200 µM and the IC50 was above 200 µM.
Consider `Nc1nc(Cl)cc(NCC2(CO)COC2)n1`, for which the EC50 was above 200 µM and the IC50 was above 200 µM.
With `N=C(N)SSC(=N)N`, the EC50 was 70.8 µM and the IC50 is above 100 µM.
Regarding `CNC(=S)SSC(=S)NCCNC(=S)SSC(=S)NC`, the result was inactive.
For the compound `Cc1ccc(/C=C2/NC(=S)SC2=O)cc1`, the EC50 was above 200 µM and the IC50 is 170 µM.
For `CC(=O)OC1SC(c2c(F)cccc2F)n2c1nc1ccccc12` (stereo not drawn) the same measures were 38 µM and 126 µM.
As for `N#Cc1nc(CSCc2ccccc2)oc1N`, the EC50 was above 200 µM and the concentration for half-maximal inhibition (IC50) was found to be 117 µM.
On to `O=C(/C=C/c1ccccc1O)c1ccccc1Cl`, for which the EC50 was above 38.9 µM and the IC50 was above 38.9 µM.
In the case of `Cc1csc(N2C(=O)c3cccc4cccc(c34)C2=O)n1`, the EC50 was above 200 µM and the IC50 is 64.6 µM.
The matching figures for `O=C(CCCCC1CCSS1)N(C(=O)NC1CCCCC1)C1CCCCC1` (stereo not drawn): above 200 µM and 10.5 µM.
The matching figures for `CSc1nc2c(nc(C)c(=O)n2C2OCC(OC(C)=O)C(OC(C)=O)C2OC(C)=O)c(=O)[nH]1` (stereo not drawn): above 513 µM and above 513 µM.
With `CSc1nc(-c2ccc(Cl)cc2)c(C#N)c(=O)n1C1OC(COC(C)=O)C(OC(C)=O)C(OC(C)=O)C1OC(C)=O` (stereo not drawn), the EC50 is above 132 µM; the IC50 is 32.4 µM and 89.1 µM.
In the case of `C/C=C/CC1(C(C)C)C(=O)NC(=S)NC1=O`, the EC50 was above 200 µM and the half-inhibitory concentration (IC50) is above 200 µM.
For `O=[N+]([O-])C=C(c1ccc(Cl)cc1)c1ccc(Cl)cc1`, the outcome was inactive.
With `Clc1ccc(NC2=NCCN=C(Nc3ccc(Cl)cc3)SS2)cc1`, the EC50 is above 200 µM and the concentration for half-maximal inhibition (IC50) came out at 22.9 µM.
In the case of `S=c1[nH]nc(C23CC4CC(CC(C4)C2)C3)n1-c1ccc(Cl)cc1`, the EC50 is above 200 µM and the 50% inhibitory concentration (IC50) was 23.4 µM.
Turning to `O=C(O)C[C@H]1CCCCC12CCOC2=O` (stereo partly drawn), the outcome was inactive.
In the case of `CC(=O)CC(=O)Nc1c(C)[c]([Hg][O]C(C)=O)c(C)[c]([Hg][O]C(C)=O)[c]1[Hg][O]C(C)=O`, the EC50 was above 1.48 µM and the IC50 was above 1.48 µM.
With `CCC(C)C(NC(=O)C(CCCC(N)=O)NC(=O)CNC(=O)C(NC(=O)C(NC(=O)C(NC(=O)C(Cc1ccccc1)NC(=O)C(C)NC(=O)C(CCCNC(=N)N)NC(=O)CNC(=O)C1CCCN1C(=O)CNC(=O)C(CCCNC(=N)N)NC(=O)C(CCCC(N)=O)NC(=O)C(NC(=O)C(CCCNC(=N)N)NC(=O)C(NC(=O)C(COC1OC(CO)C(O)C(O)C1NC(C)=O)NC(=O)C(CCCCN)NC(=O)C(CCCNC(=N)N)NC(=O)C(NC(=O)C(CC(N)=O)NC(=O)C(N)CC(N)=O)C(C)O)C(C)CC)C(C)CC)C(C)C)C(C)O)C(C)CC)C(=O)NCC(N)=O` (stereo not drawn), the EC50 was above 50.1 µM and the IC50 was above 50.1 µM.
On to `O=c1cc(-c2ccccc2)oc2ccc(Oc3nnnn3-c3ccccc3)cc12`, for which the EC50 was above 200 µM and the half-maximal inhibitory concentration (IC50) was above 200 µM.
For the compound `C=C1CC(C)(COc2cc(=O)oc3ccccc23)OC1=O` (stereo not drawn), the EC50 was above 200 µM and the IC50 turned out to be 1.74 µM.
The matching figures for `O=C(C/C=C/c1ccccc1)c1ccccc1`: above 200 µM and 10 µM.
Consider `CC1OC23CCCCC2C(C#N)(C#N)C1(C#N)C(=N)O3` (stereo not drawn), for which the EC50 is above 200 µM and the 50% inhibitory concentration (IC50) is 4.27 µM.
As to `COc1cccc(C2CC23C(=O)NC(=O)NC3=O)c1` (stereo not drawn), the EC50 was above 100 µM and the concentration for half-maximal inhibition (IC50) was above 100 µM.
For `C[N+](C)(C)CC1CCCc2ccccc2C1=O` (stereo not drawn), the result was inactive.
In the case of `COC(=O)/C=C(\C=C/C(=O)O)C(=O)O`, the EC50 is above 1260 µM and the half-maximal inhibitory concentration (IC50) worked out at 251 µM.
For the compound `CC1(C)CC(O)C(C)(C)[C@@H](O)C1` (stereo partly drawn), the result was inactive.
Consider `C1CC2N=C3OCCC3N=C2O1` (stereo not drawn), for which the EC50 was above 1510 µM and the half-maximal inhibitory concentration (IC50) was above 1510 µM.
Take `CCOC(=O)c1cn2ccccc2c(C(C)=O)c1=N`: the EC50 is above 200 µM and the IC50 is 166 µM.
